This is an account of results in patent publication US10301630B2, “Methods and compositions for unsilencing imprinted genes” (The University of North Carolina at Chapel Hill, priority 2010, dated 2019).

Series [1] has as its system cultured neurons. Nature of the series: Affymetrix GeneChip expression in cultured neurons. The format is cell-based.
The test system of series [2] is cultured neurons. Nature of the series: Neuron health / cell death in treated cultures. The format is cell-based, mouse.
Series [3] concerns Ube3a, Ube3a-ATS, Snrpn mRNA. Nature of the series: Quantitative PCR of Ube3a, Ube3a-ATS and Snrpn in Ube3a m-/p+ neurons. The format is cell-based, mouse. The note with it: 300 nM, cultured neurons from Ube3a m−/p+ mice. The protocol:
First strand cDNA synthesis was performed on 500 ng-2 μg total RNA using Superscript III reverse transcriptase (Invitrogen) primed with random hexamers. qPCR reactions used SYBR green (Invitrogen) and were run on a Rotorgene 3000 (Corbett Research). Standard curves and Ct-values were generated using Rotorgene analysis software version 6.0. Expression of Ube3a, Ube3a-ATS, Ipw and Snrpn were determined after normalization of each cDNA sample to expression levels of the housekeeping genes Rp122 and Actb.

Regarding `CCc1c2c(nc3ccc(OC(=O)N4CCC(N5CCCCC5)CC4)cc13)-c1cc3c(c(=O)n1C2)COC(=O)[C@]3(O)CC` [Irinotecan], the “apoptotic pathways by microarray” value in the series with cultured neurons [1] is “no evidence for drug-induced increases in apoptotic pathways”. Moreover, the “neuron density and health (DAPI counterstain)” value in the series with cultured neurons [2] (10 μM for 72 hr) is “Neuron density and health is similar”. Moreover, the “pyknotic nuclei versus vehicle” value in the series with cultured neurons [2] (effective concentrations, cultures) was “a similar number of pyknotic nuclei”.

On to `CC[C@@]1(O)C(=O)OCc2c1cc1n(c2=O)Cc2cc3c(CN(C)C)c(O)ccc3nc2-1` [Topotecan], for which, in series [3], the “Ube3a mRNA expression” value is “upregulated expression of Ube3a”; the “Ube3a-ATS and Snrpn mRNA expression” value is “downregulating expression of Ube3a-ATS and Snrpn”.
